Measured values from patent US9186345B2 (priority 2004, dated 2015).
Where a name gives a salt, the structure may show the parent alone.

Tested on: plaque type psoriasis vulgaris
Assay: Simple-blind, own-control topical gel treatment of five psoriasis patients (Example 1)
Type: in vivo, human
From the text: The gel used was of the following composition:
Patients for the treatment of psoriasis (five patients) were chosen as having a relatively secure diagnosis of plaque type psoriasis vulgaris with silvery scales covering the surface of the lesion. This disease tends to be chronic, and often difficult to treat with topical agents. All of the five patients treated were diagnosed by a dermatologist and had the diagnosis for over three years. None of these patients had arthritis.
After a treatment, which may vary from two weeks to one month, there was a considerable improvement both scaling, size, thickness and erythematous appearance of the lesions. The lesions in these patients were all symmetric and each patient was treated with the formulation of the present invention without the active compound on one side and with the active compound on the other. Each patient was treated as their own control (simple blind).
Two patients were treated with galantamine and three patients with donepezil.

COc1cc2c(cc1OC)C(=O)C(CC1CCN(Cc3ccccc3)CC1)C2 (centres unmarked) [donepezil, donepezil hydrochloride]
adverse effect (human, in vivo): no adverse effect was noticed

COc1ccc2c3c1O[C@H]1C[C@@H](O)C=C[C@@]31CCN(C)C2 [galantamine, galantamine hydrobromide]
adverse effect (gel containing 0.1% active compound, two days twice daily): no adverse effect was noticed
